Reference: patent publication US20230295197A1, “STAT5 and STAT6 Degraders and Uses Thereof” (REGENTS OF THE UNIVERSITY OF MICHICAN, priority 2022, published 2023)

target: T1, STAT6 (Homo sapiens, UniProt P42226); assay: Immunoblotting (Western blot) analysis of STAT6 degradation efficiency of degraders in treated cells; type: cell-based; settings: L1236 cells, read-out: DC50 S6 L1236
T1 construct: endogenous in cells; host or cells: MOLM-16, KU-812, SKNO1, MB231, L1236
T1 sequence (P42226 1-847): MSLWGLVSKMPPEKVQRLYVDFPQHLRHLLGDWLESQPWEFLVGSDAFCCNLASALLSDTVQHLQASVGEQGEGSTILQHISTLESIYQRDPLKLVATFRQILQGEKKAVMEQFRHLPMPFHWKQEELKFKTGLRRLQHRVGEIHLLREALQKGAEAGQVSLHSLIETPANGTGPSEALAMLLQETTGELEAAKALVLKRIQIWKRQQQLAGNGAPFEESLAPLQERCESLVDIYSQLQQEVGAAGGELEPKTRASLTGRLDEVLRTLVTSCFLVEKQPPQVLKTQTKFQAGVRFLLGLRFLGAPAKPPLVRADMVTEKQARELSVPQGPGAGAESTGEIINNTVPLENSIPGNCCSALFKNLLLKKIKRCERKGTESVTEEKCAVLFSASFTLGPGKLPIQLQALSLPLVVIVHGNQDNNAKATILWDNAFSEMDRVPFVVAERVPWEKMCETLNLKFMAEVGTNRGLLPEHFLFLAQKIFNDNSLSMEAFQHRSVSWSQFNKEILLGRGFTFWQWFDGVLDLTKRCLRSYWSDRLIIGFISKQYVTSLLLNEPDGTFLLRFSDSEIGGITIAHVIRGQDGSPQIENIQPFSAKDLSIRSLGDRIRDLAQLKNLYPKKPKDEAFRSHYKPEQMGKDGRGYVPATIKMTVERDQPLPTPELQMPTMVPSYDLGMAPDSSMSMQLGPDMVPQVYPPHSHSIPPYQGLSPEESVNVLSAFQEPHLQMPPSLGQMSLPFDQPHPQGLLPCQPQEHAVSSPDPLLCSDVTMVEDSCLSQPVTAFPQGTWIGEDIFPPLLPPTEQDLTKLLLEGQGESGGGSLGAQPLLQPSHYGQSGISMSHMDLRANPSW
How it was run: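 Each data point uses roughly one million cells dosed as indicated; pellets are lysed on ice, freeze-thawed, and clarified. Reduced, denatured samples (95 °C, 5 min) run on SDS gels, then membranes receive rabbit mAbs to STAT5 or STAT6 plus mouse anti-GAPDH overnight, followed by dye-labelled secondaries for fluorescence imaging.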

SMILES	DC50 [µM]
Cc1ncsc1-c1ccc([C@H](C)NC(=O)[C@@H]2C[C@@H](O)CN2C(=O)[C@@H](NC(=O)CCCCCCNC(=O)CC(=O)N2CCN(C(=O)[C@@H](NC(=O)c3cc4cc(C(F)(F)P(=O)(O)O)ccc4s3)C(C)(C)C)[C@H](C(=O)N3CCC[C@H](c4ccccc4)C3)C2)C(C)(C)C)cc1 [Compound 457, (difluoro(2-(((S)-1-((S)-4-(3-((7-(((S)-1-((2S,4R)-4-hydroxy-2-(((S)-1-(4-(4-methylthiazol-5-yl)phenyl)ethyl)carbamoyl)pyrrolidin-1-yl)-3,3-dimethyl-1-oxobutan-2-yl)amino)-7-oxoheptyl)amino)-3-oxopropanoyl)-2-((R)-3-phenylpiperidine-1-carbonyl)piperazin-1-yl)-3,3-dimethyl-1-oxobutan-2-yl)carbamoyl)benzo[b]thiophen-5-yl)methyl)phosphonic acid]	> 10

same assay, conditions: MOLM-16 cells, class symbols, read-out: DC50 S6 MOLM-16

DC50 [µM]	SMILES
> 10	CC(C)(C)[C@H](NC(=O)c1cc2cc(C(F)(F)P(=O)(O)O)ccc2s1)C(=O)N1Cc2cc(OCC(=O)NCCC#Cc3ccc4c(c3)C(=O)N(C3CCC(=O)NC3=O)C4=O)ccc2C[C@H]1C(=O)N1CCC[C@H](c2ccccc2)C1 (stereo partly drawn) [Compound 552, ((2-(((2S)-1-((3S)-7-(2-((4-(2-(2,6-dioxopiperidin-3-yl)-1,3-dioxoisoindolin-5-yl)but-3-yn-1-yl)amino)-2-oxoethoxy)-3-((R)-3-phenylpiperidine-1-carbonyl)-3,4-dihydroisoquinolin-2(1H)-yl)-3,3-dimethyl-1-oxobutan-2-yl)carbamoyl)benzo[b]thiophen-5-yl)difluoromethyl)phosphonic acid]
> 10	CC(C)(C)[C@H](NC(=O)c1cc2cc(C(F)(F)P(=O)(O)O)ccc2s1)C(=O)N1Cc2cc(OCC(=O)NCCCCC#Cc3ccc4c(c3)C(=O)N(C3CCC(=O)NC3=O)C4=O)ccc2C[C@H]1C(=O)N1CCC[C@H](c2ccccc2)C1 (stereo partly drawn) [Compound 556, ((2-(((2S)-1-((3S)-7-(2-((6-(2-(2,6-dioxopiperidin-3-yl)-1,3-dioxoisoindolin-5-yl)hex-5-yn-1-yl)amino)-2-oxoethoxy)-3-((R)-3-phenylpiperidine-1-carbonyl)-3,4-dihydroisoquinolin-2(1H)-yl)-3,3-dimethyl-1-oxobutan-2-yl)carbamoyl)benzo[b]thiophen-5-yl)difluoromethyl)phosphonic acid]
1 to 10	CC(C)(C)[C@H](NC(=O)c1cc2cc(C(F)(F)P(=O)(O)O)ccc2s1)C(=O)N1C[C@H](OCCCCCC(=O)N2Cc3cc4c(cc3C2)C(=O)N(C2CCC(=O)NC2=O)C4)C[C@H]1C(=O)N1CCO[C@H](c2ccccc2)C1 (stereo partly drawn) [Compound 592, ((2-(((2S)-1-((2S,4R)-4-((6-(6-(2,6-dioxopiperidin-3-yl)-5-oxo-3,5,6,7-tetrahydropyrrolo[3,4-f]isoindol-2(1H)-yl)-6-oxohexyl)oxy)-2-((R)-2-phenylmorpholine-4-carbonyl)pyrrolidin-1-yl)-3,3-dimethyl-1-oxobutan-2-yl)carbamoyl)benzo[b]thiophen-5-yl)difluoromethyl)phosphonic acid]
> 10	CC(C)(C)[C@H](NC(=O)c1cc2cc(C(F)(F)P(=O)(O)O)ccc2s1)C(=O)N1Cc2cc(OCC(=O)NCCCCCC#Cc3ccc4c(c3)C(=O)N(C3CCC(=O)NC3=O)C4=O)ccc2C[C@H]1C(=O)N1CCC[C@H](c2ccccc2)C1 (stereo partly drawn) [Compound 558, ((2-(((2S)-1-((3S)-7-(2-((7-(2-(2,6-dioxopiperidin-3-yl)-1,3-dioxoisoindolin-5-yl)hept-6-yn-1-yl)amino)-2-oxoethoxy)-3-((R)-3-phenylpiperidine-1-carbonyl)-3,4-dihydroisoquinolin-2(1H)-yl)-3,3-dimethyl-1-oxobutan-2-yl)carbamoyl)benzo[b]thiophen-5-yl)difluoromethyl)phosphonic acid]
> 10	CC(C)(C)[C@H](NC(=O)c1cc2cc(C(F)(F)P(=O)(O)O)ccc2s1)C(=O)N1C[C@@H](OCC(=O)NCCCCCC#Cc2ccc3c(c2)C(=O)N(C2CCC(=O)NC2=O)C3=O)C[C@H]1C(=O)N1CCC[C@H](c2ccccc2)C1 (stereo partly drawn) [Compound 502, ((2-(((2S)-1-((2S,4S)-4-(2-((7-(2-(2,6-dioxopiperidin-3-yl)-1,3-dioxoisoindolin-5-yl)hept-6-yn-1-yl)amino)-2-oxoethoxy)-2-((R)-3-phenylpiperidine-1-carbonyl)pyrrolidin-1-yl)-3,3-dimethyl-1-oxobutan-2-yl)carbamoyl)benzo[b]thiophen-5-yl)difluoromethyl)phosphonic acid]

Further lines, the molecule ahead of its results:

SMILES	DC50 [µM]
CC(C)(C)[C@H](NC(=O)c1cc2cc(C(F)(F)P(=O)(O)O)ccc2s1)C(=O)N1C[C@@H](OCC(=O)NCCC#Cc2cccc3c2C(=O)N(C2CCC(=O)NC2=O)C3=O)C[C@H]1C(=O)N1CCC[C@H](c2ccccc2)C1 (stereo partly drawn) [Compound 495, ((2-(((2S)-1-((2S,4S)-4-(2-((4-(2-(2,6-dioxopiperidin-3-yl)-1,3-dioxoisoindolin-4-yl)but-3-yn-1-yl)amino)-2-oxoethoxy)-2-((R)-3-phenylpiperidine-1-carbonyl)pyrrolidin-1-yl)-3,3-dimethyl-1-oxobutan-2-yl)carbamoyl)benzo[b]thiophen-5-yl)difluoromethyl)phosphonic acid]	> 10
CC(C)(C)[C@H](NC(=O)c1cc2cc(C(F)(F)P(=O)(O)O)ccc2s1)C(=O)N1CCN(C(=O)CC(=O)NCCCCCCCCCC#Cc2ccc3c(c2)C(=O)N(C2CCC(=O)NC2=O)C3=O)C[C@H]1C(=O)N1CCC[C@H](c2ccccc2)C1 (stereo partly drawn) [Compound 534, ((2-(((2S)-1-((2S)-4-(3-((11-(2-(2,6-dioxopiperidin-3-yl)-1,3-dioxoisoindolin-5-yl)undec-10-yn-1-yl)amino)-3-oxopropanoyl)-2-((R)-3-phenylpiperidine-1-carbonyl)piperazin-1-yl)-3,3-dimethyl-1-oxobutan-2-yl)carbamoyl)benzo[b]thiophen-5-yl)difluoromethyl)phosphonic acid]	> 10
Cc1ncsc1-c1ccc([C@H](C)NC(=O)[C@@H]2C[C@@H](O)CN2C(=O)[C@@H](NC(=O)CCCCCCNC(=O)CC(=O)N2CCN(C(=O)[C@@H](NC(=O)c3cc4cc(C(F)(F)P(=O)(O)O)ccc4s3)C(C)(C)C)[C@H](C(=O)N3CCC[C@H](c4ccccc4)C3)C2)C(C)(C)C)cc1 [Compound 457, (difluoro(2-(((S)-1-((S)-4-(3-((7-(((S)-1-((2S,4R)-4-hydroxy-2-(((S)-1-(4-(4-methylthiazol-5-yl)phenyl)ethyl)carbamoyl)pyrrolidin-1-yl)-3,3-dimethyl-1-oxobutan-2-yl)amino)-7-oxoheptyl)amino)-3-oxopropanoyl)-2-((R)-3-phenylpiperidine-1-carbonyl)piperazin-1-yl)-3,3-dimethyl-1-oxobutan-2-yl)carbamoyl)benzo[b]thiophen-5-yl)methyl)phosphonic acid]	> 10
Cc1ncsc1-c1ccc([C@H](C)NC(=O)[C@@H]2C[C@@H](O)CN2C(=O)[C@@H](NC(=O)CCCCCCCCNC(=O)COc2ccc3c(c2)CN(C(=O)[C@@H](NC(=O)c2cc4cc(C(F)(F)P(=O)(O)O)ccc4s2)C(C)(C)C)[C@H](C(=O)N2CCC[C@H](c4ccccc4)C2)C3)C(C)(C)C)cc1 [Compound 477, (difluoro(2-(((S)-1-((S)-7-(2-((9-(((S)-1-((2S,4R)-4-hydroxy-2-(((S)-1-(4-(4-methylthiazol-5-yl)phenyl)ethyl)carbamoyl)pyrrolidin-1-yl)-3,3-dimethyl-1-oxobutan-2-yl)amino)-9-oxononyl)amino)-2-oxoethoxy)-3-((R)-3-phenylpiperidine-1-carbonyl)-3,4-dihydroisoquinolin-2(1H)-yl)-3,3-dimethyl-1-oxobutan-2-yl)carbamoyl)benzo[b]thiophen-5-yl)methyl)phosphonic acid]	> 10

same assay, conditions: MOLM-16 cells, numeric bound, read-out: DC50 S6 MOLM-16

DC50 [µM]	SMILES
> 0.3	CC(C)(C)[C@H](NC(=O)c1cc2cc(C(F)(F)P(=O)(O)O)ccc2s1)C(=O)N1C[C@@H](OCCCCCC#Cc2cccc3c2CN(C2CCC(=O)NC2=O)C3=O)C[C@H]1C(=O)N1CCC[C@H](c2ccccc2)C1 (stereo partly drawn) [Compound 601, ((2-(((2S)-1-((2S,4S)-4-((7-(2-(2,6-dioxopiperidin-3-yl)-1-oxoisoindolin-4-yl)hept-6-yn-1-yl)oxy)-2-((R)-3-phenylpiperidine-1-carbonyl)pyrrolidin-1-yl)-3,3-dimethyl-1-oxobutan-2-yl)carbamoyl)benzo[b]thiophen-5-yl)difluoromethyl)phosphonic acid]
